Test results taken from US8748485B2, “Compound and medical use thereof” (Ono Pharmaceuticals Co., Ltd., priority 2010, dated 2014).

How the values were obtained:
[1] = Kinetic study in dogs (oral administration, plasma levodopa); conditions: dog, in vivo, po, 3 mg/kg; for Cmax/C6 hr (ratio of maximum plasma concentration and plasma concentration at 6 hours after oral administration, levodopa): male, beagle
Source text: The relationship between the blood concentration of levodopa and side effects in patients who take levodopa has been gradually elucidated. […] In order to reduce the number of doses of levodopa and avoid side effects such as dyskinesia and wearing-off in patients who take levodopa, it is necessary to maintain the blood concentration of levodopa within a therapeutic range as long as possible.
These levodopa prodrugs are prodrugs containing an ester bond, and therefore, it is considered that among a number of enzymes, carboxyesterase plays the most important role in the process of producing levodopa by metabolizing the compound after the compound is administered in vivo. Therefore, as an animal species to be used for performing a kinetic study, dogs in which the organ distribution of carboxyesterase is most similar to that of humans were selected as subjects for evaluation.
The thus obtained drug solution was administered by gavage through a gastric tube into the stomach of dogs (male beagle dogs) which were fasted from the day before the administration. At 15 and 30 minutes, and 1, 2, 4, 6, and 8 hours after administration of the drug solution, 1 mL of blood was collected from a cephalic vein with a heparinized syringe. Immediately after the collection, the collected blood was centrifuged in a desktop centrifuge at 14500 rpm for 45 seconds. Then, acetonitrile containing 0.1125% formic acid was added to the thus obtained plasma in an amount as twice as large as the volume of the plasma, followed by stirring, and then, the resulting sample was stored at −20° C. until measurement.
The sample was thawed on the measurement day, followed by stirring and centrifugation at 13000 rpm for 3 minutes (at 4° C.). The resulting supernatant was filtered and the filtrate was analyzed by LC/MS/MS. The analysis was performed by LC/MS/MS under the following conditions.
Measurement Apparatus: API-5000 (manufactured by Applied Biosystems, Inc.)
Analytical column: CAPCELL PAK CR (1:4) (4.6 mm, I.D.×250 mm, 5 μm)
Analytical column temperature: 40° C.
Mobile phase: A: 5 mM ammonium formate (pH 3.9), B: acetonitrile (A/B=17/3)
Detection (levodopa): m/z (precursor): 196.19, m/z (product): 134.99
DP (Declustering Potential): −60
CE (Collision Energy): −25
CXP (Collision Cell Exit Potential): −17
Incidentally, the numerical value in the column which indicates the dose expressed in terms of levodopa refers to a dose equivalent to that of levodopa.

[2] = test system: p53R2; experiment: Mutagenicity assay using mammalian cells (NESMAGET method); assay type: cell-based
Description: In the treatment of Parkinson's disease and/or Parkinson's syndrome, there is a possibility that a levodopa prodrug is continued to be taken over a long period of time of several years to several decades. Therefore, an evaluation was carried out as to whether or not the compound of the present invention has mutagenicity by a mutagenicity assay using mammalian cells.
A mutagenicity assay using mammalian cells was carried out as a commissioning test to be undertaken by Nissin Foods Holdings Co., Ltd. The present method also called NESMAGET method is a method in which the expression of p53R2 which is a DNA repair gene is detected by luciferase activity, and the specific experimental technique is described in JP-A-2005-000024 and Japanese Patent No. 4243716. In the determination as to whether or not the result of this test was positive, the luciferase activity of p53R2 in the case of a vehicle control (0.3% dimethylsulfoxide) was taken as 100%, and a concentration at which a relative luciferase activity exceeded 200% was determined to be “concentration at which mutagenicity was determined to be positive”.

Structure (SMILES) | AUC (area under the blood concentration-time curve of levodopa) [1] | Cmax/C6 hr (ratio of maximum plasma concentration and plasma concentration at 6 hours after oral administration, levodopa) [1] | Mutagenicity assay (NESMAGET) Concentration at which mutagenicity was determined to be positive ([2]; concentration at which relative luciferase activity of p53R2 exceeded 200% (vehicle control 0.3% dimethylsulfoxide = 100%)) | determination of mutagenicity ([2]; positive = relative luciferase activity of p53R2 exceeded 200%, compound of the present invention up to 200 μg/mL)
CC1(CC(=O)Oc2ccc(C[C@H](N)C(=O)O)cc2OC(=O)CC2(C)CCCCC2)CCCCC1.Cl [Reference Example 30, (2S)-2-Amino-3-(3,4-bis(2-(1-methylcyclohexyl)acetoxy)phenyl)propanoic acid hydrochloride] | 0.36 μg^+ hr/mL | 12.8 |  | 
CC(=O)OC(C)(C)C(=O)Oc1ccc(C[C@H](N)C(=O)O)cc1OC(=O)C(C)(C)OC(C)=O.Cl [Reference Example 32, (2S)-2-Amino-3-(3,4-bis((2-acetoxy-2-methylpropanoyl)oxy)phenyl)propanoic acid hydrochloride] | 0.53 μg^+ hr/mL | 40.7 |  | 
CCC(C)(CC)C(=O)Oc1ccc(C[C@H](N)C(=O)O)cc1OC(=O)C(C)(CC)CC.Cl [Reference Example 18, (2S)-2-Amino-3-(3,4-bis((2-ethyl-2-methylbutanoyl)oxy)phenyl)propanoic acid hydrochloride] | 0.12 μg^+ hr/mL | 2.9 |  | 
CC(C)(COC(=O)c1cccs1)C(=O)Oc1ccc(C[C@H](N)C(=O)O)cc1OC(=O)C(C)(C)COC(=O)c1cccs1.Cl [Reference Example 6, (2S)-2-Amino-3-(3,4-bis((2,2-dimethyl-3-((thiophene-2-carbonyl)oxy)propanoyl)oxy)phenyl)propanoic acid hydrochloride] | 0.66 μg^+ hr/mL | 14.7 | 2.4 µg/mL | positive for mutagenicity
COC(=O)[C@@H](N)Cc1ccc(OC(=O)CC(C)(C)C)c(OC(=O)CC(C)(C)C)c1 [Compound X, 3,3-dimethyl-butyric acid 4-((S)-2-amino-2-methoxycarbonyl-ethyl)-2-(3,3-dimethyl-butyryloxy)phenyl ester] | 0.42 μg^+ hr/mL | 12.6 |  | 
CC1(CC(=O)Oc2ccc(C[C@H](N)C(=O)O)cc2OC(=O)CC2(C)CCCC2)CCCC1.Cl [Reference Example 31, (2S)-2-Amino-3-(3,4-bis(2-(1-methylcyclopentyl)acetoxy)phenyl)propanoic acid hydrochloride] | 0.42 μg^+ hr/mL | 18.7 |  | 
Cl.N[C@@H](Cc1ccc(OC(=O)CC2CCCCC2)c(OC(=O)CC2CCCCC2)c1)C(=O)O [Reference Example 29, (2S)-2-Amino-3-(3,4-bis(2-cyclohexylacetoxy)phenyl)propanoic acid hydrochloride] | 0.59 μg^+ hr/mL | 98.5 |  | 
Cl.N[C@@H](Cc1ccc(OC(=O)CC2CCCC2)c(OC(=O)CC2CCCC2)c1)C(=O)O [Reference Example 28, (2S)-2-Amino-3-(3,4-bis(2-cyclopentylacetoxy)phenyl)propanoic acid hydrochloride] | 0.68 μg^+ hr/mL | 304.4 |  | 

More lines, main results first:

AUC (area under the blood concentration-time curve of levodopa) [1] | Cmax/C6 hr (ratio of maximum plasma concentration and plasma concentration at 6 hours after oral administration, levodopa) [1] | Structure (SMILES) | Mutagenicity assay (NESMAGET) Concentration at which mutagenicity was determined to be positive ([2]; concentration at which relative luciferase activity of p53R2 exceeded 200% (vehicle control 0.3% dimethylsulfoxide = 100%)) | determination of mutagenicity ([2]; positive = relative luciferase activity of p53R2 exceeded 200%, compound of the present invention up to 200 μg/mL)
0.84 μg^+ hr/mL | 58.7 | CC1(C(=O)Oc2ccc(C[C@H](N)C(=O)O)cc2OC(=O)C2(C)CC2)CC1.Cl [Reference Example 27, (2S)-2-Amino-3-(3,4-bis((1-methylcyclopropanecarbonyl)oxy)phenyl)propanoic acid hydrochloride] |  | 
0.45 μg^+ hr/mL | 18.0 | Cl.N[C@@H](Cc1ccc(OC(=O)C2CC2)c(OC(=O)C2CC2)c1)C(=O)O [Reference Example 26, (2S)-2-Amino-3-(3,4-bis((cyclopropanecarbonyl)oxy)phenyl)propanoic acid hydrochloride] |  | 
0.28 μg^+ hr/mL | 6.6 | CC(C)C(CC(=O)Oc1ccc(C[C@H](N)C(=O)O)cc1OC(=O)CC(C(C)C)C(C)C)C(C)C.Cl [Reference Example 22, (2S)-2-Amino-3-(3,4-bis((3-isopropyl-4-methylpentanoyl)oxy)phenyl)propanoic acid hydrochloride] |  | 
0.31 μg^+ hr/mL | 24.2 | N[C@@H](Cc1ccc(OC(=O)c2ccccc2C(F)(F)F)c(OC(=O)c2ccccc2C(F)(F)F)c1)C(=O)O [Reference Example 25, (2S)-2-Amino-3-(3,4-bis((2-(trifluoromethyl)benzoyl)oxy)phenyl)propanoic acid] |  | 
0.10 μg^+ hr/mL | 16.1 | C[C@H](OC(=O)c1ccccc1)C(=O)Oc1ccc(C[C@H](N)C(=O)O)cc1OC(=O)[C@H](C)OC(=O)c1ccccc1.Cl [Reference Example 34, (2S)-2-Amino-3-(3,4-bis(((S)-2-(benzoyloxy)propanoyl)oxy)phenyl)propanoic acid hydrochloride] |  | 
0.70 μg^+ hr/mL | 221.2 | CC(C)(C)CCC(=O)Oc1ccc(C[C@H](N)C(=O)O)cc1OC(=O)CCC(C)(C)C.Cl [Reference Example 19, (2S)-2-Amino-3-(3,4-bis((4,4-dimethylpentanoyl)oxy)phenyl)propanoic acid hydrochloride] |  | 
0.77 μg^+ hr/mL | 1039.6 | C[C@@H](OC(=O)c1ccccc1)C(=O)Oc1ccc(C[C@H](N)C(=O)O)cc1OC(=O)[C@@H](C)OC(=O)c1ccccc1.Cl [Reference Example 35, (2S)-2-Amino-3-(3,4-bis(((R)-2-(benzoyloxy)propanoyl)oxy)phenyl)propanoic acid hydrochloride] |  | 
0.27 μg^+ hr/mL | 8.8 | CCC(C)(CC)CC(=O)Oc1ccc(C[C@H](N)C(=O)O)cc1OC(=O)CC(C)(CC)CC.Cl [Reference Example 21, (2S)-2-Amino-3-(3,4-bis((3-ethyl-3-methylpentanoyl)oxy)phenyl)propanoic acid hydrochloride] |  | 
0.59 μg^+ hr/mL | 41.5 | Cc1ccccc1C(=O)Oc1ccc(C[C@H](N)C(=O)O)cc1OC(=O)c1ccccc1C.Cl [Reference Example 23, (2S)-2-Amino-3-(3,4-bis((2-methylbenzoyl)oxy)phenyl)propanoic acid hydrochloride] |  | 
0.003 μg^+ hr/mL | 2.0 | CCC(CC)(OC(=O)c1ccccc1)C(=O)Oc1ccc(C[C@H](N)C(=O)O)cc1OC(=O)C(CC)(CC)OC(=O)c1ccccc1.Cl [Reference Example 33, (2S)-2-Amino-3-(3,4-bis((2-(benzoyloxy)-2-ethylbutanoyl)oxy)phenyl)propanoic acid hydrochloride] |  | 
